Assays:
Format in all cases: physicochemical
[1] = Estimated solubility of HM30181 mesylate Type A starting material in solvents (stepwise solvent addition); conditions: for solubility: thermodynamic from solid
[2] = Dynamic Vapor Sorption (DVS) with XRPD post-DVS; conditions: for Hygroscopicity by DVS (in words) / Water absorbed by DVS: 0-95% RH
Description: (§1) XRPD was performed using a Panalytical X'Pert3™ Powder XRPD and on a Si zero-background holder. The 2θ position was calibrated against a Panalytical™ 640 Si powder standard. Details of XRPD used in the experiments are listed below in Table 20.
Dynamic Vapor Sorption (DVS) was measured using a SMS (Surface Measurement Systems™) DVS Intrinsic. Parameters for DVS test are listed below in Table 24.

[3] = Cyclic DSC heating followed by XRPD / 1H-NMR (thermal stability of solid form)
Description: Based on ^1H-NMR data, decomposition of Type A initiated after heating to 200° C. (see FIG. 14).
as §1
In some studies, a cyclic DSC method was used. In such cycling DSC methods temperature was ramped from ambient to 150° C. at a heating rate of 10° C./min using N2 as the purge gas, then cooled by 10° C. to 25° C. This temperature cycle repeated twice (see Table 22).
Proton NMR were obtained using a Varian 200M™ NMR in deuterated DMSO (DMSO-d6).

COc1cc2c(cc1OC)CN(CCc1ccc(-n3nnc(-c4cc(OC)c(OC)cc4NC(=O)c4cc(=O)c5ccccc5o4)n3)cc1)CC2.CS(=O)(=O)O [HM30181 mesylate Type A, HM30181 mesylate]
solubility ([1]; organic solvent or mixture, solvent 1,4-Dioxane): < 1000 µg/mL | solubility ([1]; organic solvent or mixture, solvent 2-MeTHF): < 1000 µg/mL | solubility ([1]; organic solvent or mixture, solvent ACN): < 1000 µg/mL | solubility ([1]; organic solvent or mixture, solvent Acetone): < 1000 µg/mL | solubility ([1]; organic solvent or mixture, solvent CHCl3): 5000 to 6700 µg/mL | solubility ([1]; organic solvent or mixture, solvent Cumene): < 1000 µg/mL | solubility ([1]; organic solvent or mixture, solvent Cyclohexane): < 1000 µg/mL | solubility ([1]; organic solvent or mixture, solvent DCM): < 1000 µg/mL | solubility ([1]; organic solvent or mixture, solvent DMA): 3200 to 4800 µg/mL | solubility ([1]; organic solvent or mixture, solvent DMSO): 22000 to 44000 µg/mL | solubility ([1]; organic solvent or mixture, solvent EtOAc): < 900 µg/mL | solubility ([1]; organic solvent or mixture, solvent EtOH): < 900 µg/mL | solubility ([1]; organic solvent or mixture, solvent IPA): < 1000 µg/mL | solubility ([1]; organic solvent or mixture, solvent IPOAc): < 1000 µg/mL | solubility ([1]; organic solvent or mixture, solvent MEK): < 1000 µg/mL | solubility ([1]; organic solvent or mixture, solvent MIBK): < 1000 µg/mL | solubility ([1]; organic solvent or mixture, solvent MTBE): < 1000 µg/mL | solubility ([1]; organic solvent or mixture, solvent MeOH): 1700 to 2000 µg/mL | solubility ([1]; organic solvent or mixture, solvent NMP): 4800 to 6300 µg/mL | solubility ([1]; organic solvent or mixture, solvent T-BuOH): < 1000 µg/mL | solubility ([1]; organic solvent or mixture, solvent THF): < 1000 µg/mL | solubility ([1]; organic solvent or mixture, solvent Toluene): < 1000 µg/mL | solubility ([1]; organic solvent or mixture, solvent n-Heptane): < 1000 µg/mL | solubility ([1]; organic solvent or mixture, solvent n-Propanol): < 1000 µg/mL | solubility ([1]; organic solvent or mixture, solvent n-Propyl acetate): < 1000 µg/mL | Dissolved after heating to 50° C. for 2 hours? ([1]; solvent 1,4-Dioxane): No | Dissolved after heating to 50° C. for 2 hours? ([1]; solvent 2-MeTHF): No | Dissolved after heating to 50° C. for 2 hours? ([1]; solvent ACN): Yes | Dissolved after heating to 50° C. for 2 hours? ([1]; solvent Acetone): No | Dissolved after heating to 50° C. for 2 hours? ([1]; solvent Cumene): No | Dissolved after heating to 50° C. for 2 hours? ([1]; solvent Cyclohexane): No | Dissolved after heating to 50° C. for 2 hours? ([1]; solvent DCM): Yes | Dissolved after heating to 50° C. for 2 hours? ([1]; solvent EtOAc): No | Dissolved after heating to 50° C. for 2 hours? ([1]; solvent EtOH): Almost | Dissolved after heating to 50° C. for 2 hours? ([1]; solvent H2O): No | Dissolved after heating to 50° C. for 2 hours? ([1]; solvent IPA): No | Dissolved after heating to 50° C. for 2 hours? ([1]; solvent IPOAc): No | Dissolved after heating to 50° C. for 2 hours? ([1]; solvent MEK): No | Dissolved after heating to 50° C. for 2 hours? ([1]; solvent MIBK): No | Dissolved after heating to 50° C. for 2 hours? ([1]; solvent MTBE): No | Dissolved after heating to 50° C. for 2 hours? ([1]; solvent T-BuOH): No | Dissolved after heating to 50° C. for 2 hours? ([1]; solvent THF): No | Dissolved after heating to 50° C. for 2 hours? ([1]; solvent Toluene): No | Dissolved after heating to 50° C. for 2 hours? ([1]; solvent n-Heptane): No | Dissolved after heating to 50° C. for 2 hours? ([1]; solvent n-Propanol): No | Dissolved after heating to 50° C. for 2 hours? ([1]; solvent n-Propyl acetate): No | solubility ([1]; water, solvent H2O): < 1000 µg/mL | Hygroscopicity by DVS (in words) [2]: hygroscopic | Water absorbed by DVS [2]: 2.26% | Hygroscopicity by DVS (in words) ([2]; listed as Type A): Monohydrate (hygroscopic | Water absorbed by DVS ([2]; listed as Type A): to 2.26% at 95% RH) | XRPD pattern post-DVS ([2]; after DVS 0-95% RH): no change in XRPD pattern observed | Heating temperature after which decomposition initiated (1H-NMR) ([3]; 1H-NMR of heated sample): 200 °C | XRPD after cyclic DSC ([3]; heated to 110° C.): no XRPD change | XRPD after cyclic DSC ([3]; heated to 185° C.): reduced crystallinity | XRPD after cyclic DSC ([3]; heated to 200° C.): amorphous material

From patent publication US12227494B2, “Polymorphisms of HM30181 mesylate” (ATHENEX R&D, LLC, priority 2020, dated 2025)
